Source: PMC8705818, “Experimental Characterization of the Interaction between the N-Terminal SH3 Domain of Crkl and C3G” (International Journal of Molecular Sciences, 2021)
Peptide text beside a SMILES is read from it. * marks the point of attachment. Dansyl = CN(C)c1cccc2c(S(=O)(=O)*)cccc12

How the values were obtained:
[1] = target: T1, N-SH3 D138A (Crkl) (Homo sapiens, UniProt P46109, D138A); test: Stopped-flow displacement, N-SH3 D138A:dansylated C3G277–296 complex; assay type: binding; settings: pH 7.5, D138A, 50 mM Hepes pH 7.5, 10 °C
T1 construct: The construct encoding the N-SH3 domain of Crkl was subcloned in a pET28b+ plasmid vector; His-tag; made in house; host or cells: E. coli BL21
T1 sequence (P46109 123-183 D138A limits assumed): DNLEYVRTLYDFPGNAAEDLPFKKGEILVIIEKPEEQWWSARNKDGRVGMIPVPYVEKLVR
Method: (§1) We rapidly mixed a constant concentration of C3G277–296 peptide (0.5 µM) versus increasing concentrations of N-SH3 (ranging from 0.5 to 5 µM) and the observed rate constants (kobs) obtained at different ionic strength conditions (buffer Hepes 50 mM, pH 7.0, 0.15 M, 0.3 M, 0.5 M and 1 M NaCl) were plotted as function of concentration of N-SH3 and fitted with a linear equation (Figure 1). By following previously derived equations [19, 20], the dependence of kobs as function of [N-SH3] was fitted with Equation (1), taking into account the non-pseudo-first order conditions, allowing us to calculate the microscopic association rate constant (kon), the microscopic dissociation rate constant (koff) of the binding reaction and the equilibrium dissociation rate constant KD, such as koff/kon. To increase the reliability of the calculated KD, we resorted to directly obtaining a koff value through displacement experiments (Table 1), in which a preincubated complex of N-SH3 domain and dansylated C3G277–296 peptide (at the concentration of 0.5 and 2 µM, respectively) were rapidly mixed versus a high excess of nondansylated peptide (ranging from 20 to 40 µM). In agreement with the theory in [21], the observed rate constants were insensitive to displacer concentration. In all binding and displacement experiments conducted, traces were satisfactorily fitted with a single-exponential equation. (1) kobs=(kon^2∗(2−[NSH3])^2+koff^2+2konkoff(2+[NSH3]))^1/2
(§2) Kinetic binding experiments were performed on a single-mixing SX-18 stopped-flow instrument (Applied Photophysics), by mixing a constant concentration (0.5 μM) of C3G dansylated versus increasing concentrations of N-SH3 at 10 °C. Ionic strength dependence of wt N-SH3 was performed with concentrations ranging from 1 to 5 µM for 0 M NaCl condition and from 0.5 to 5 µM for 0.15 M, 0.3 M, 0.5 M and 1 M NaCl, buffer Hepes 50 mM pH 7.0. The excitation wavelength was 280 nm, and fluorescence was collected using a 455 nm cut-off filter. At least, five independent acquisitions were collected and averaged for each experiment. The resulting averages were all satisfactorily fitted with a single-exponential equation. Buffers used for pH dependence were: 50 mM Sodium Acetate pH 5.0, 50 mM Sodium Acetate, pH 5.5, Bis–Tris 50 mM pH 6.0, Bis–Tris 50 mM pH 6.5, Hepes 50 mM pH 7.0, Hepes 50 mM pH 7.5, Tris–HCl 50 mM pH 8.0, Tris–HCl 50 mM pH 8.5, Tris–HCl 50 mM pH 9.0, all with added 0.5 M NaCl. Concentrations of N-SH3 used for each experiment were: 4.0–8.0 µM at pH 5.0, 2.0–7.0 µM at pH 5.5, 1.0–5.0 µM at pH 6.0, 0.5–5.0 µM at pH 6.5, 1.5–6.0 µM at pH 7.0, 0.5–5.0 µM at pH 7.5, 1.5–6.0 µM at pH 8.0, 1.5–6.0 µM pH 8.5, 1.5–6.0 µM at pH 9.0. […]

[2] = target: T1, N-SH3 D138A (Crkl); test: Stopped-flow kinetic binding, N-SH3 D138A versus C3G277–296; settings: pH 7.5, D138A, 50 mM Hepes pH 7.5, 10 °C
Method: as §1
(§3) Then, we employed D138A, E140A and D141A variants in kinetic binding experiments with C3G, and we explored the effect of increasing ionic strength on the binding reaction of these variants.
as §2, with “NaCl.” for “NaCl. Concentrations of N-SH3 used for each experiment were: 4.0–8.0 µM at pH 5.0, 2.0–7.0 µM at pH 5.5, 1.0–5.0 µM at pH 6.0, 0.5–5.0 µM at pH 6.5, 1.5–6.0 µM at pH 7.0, 0.5–5.0 µM at pH 7.5, 1.5–6.0 µM at pH 8.0, 1.5–6.0 µM pH 8.5, 1.5–6.0 µM at pH 9.0.”

[3] = target: T2, N-SH3 E140A (Crkl) (Homo sapiens, UniProt P46109, E140A); test: Stopped-flow displacement, N-SH3 E140A:dansylated C3G277–296 complex; assay type: binding; settings: pH 7.5, E140A, 50 mM Hepes pH 7.5, 10 °C
T2 construct: The construct encoding the N-SH3 domain of Crkl was subcloned in a pET28b+ plasmid vector; His-tag; made in house; host or cells: E. coli BL21
T2 sequence (P46109 123-183 E140A limits assumed): as the sequence (P46109 123-183 D138A limits assumed) above, with A16D, E18A counted along it
Method: as §1, §2

[4] = target: T3, N-SH3 domain of Crkl (WT) (Homo sapiens, UniProt P46109); test: Stopped-flow displacement, N-SH3 WT:dansylated C3G277–296 complex versus nondansylated peptide; assay type: binding; settings: 10 °C
T3 construct: The construct encoding the N-SH3 domain of Crkl was subcloned in a pET28b+ plasmid vector; His-tag; made in house; host or cells: E. coli BL21
T3 sequence (P46109 123-183 limits assumed): as the sequence (P46109 123-183 D138A limits assumed) above, with A16D counted along it
Method: as §1
Kinetic binding experiments were performed on a single-mixing SX-18 stopped-flow instrument (Applied Photophysics), by mixing a constant concentration (0.5 μM) of C3G dansylated versus increasing concentrations of N-SH3 at 10 °C. Ionic strength dependence of wt N-SH3 was performed with concentrations ranging from 1 to 5 µM for 0 M NaCl condition and from 0.5 to 5 µM for 0.15 M, 0.3 M, 0.5 M and 1 M NaCl, buffer Hepes 50 mM pH 7.0. The excitation wavelength was 280 nm, and fluorescence was collected using a 455 nm cut-off filter. At least, five independent acquisitions were collected and averaged for each experiment. The resulting averages were all satisfactorily fitted with a single-exponential equation. Buffers used for pH dependence were: 50 mM Sodium Acetate pH 5.0, 50 mM Sodium Acetate, pH 5.5, Bis–Tris 50 mM pH 6.0, Bis–Tris 50 mM pH 6.5, Hepes 50 mM pH 7.0, Hepes 50 mM pH 7.5, Tris–HCl 50 mM pH 8.0, Tris–HCl 50 mM pH 8.5, Tris–HCl 50 mM pH 9.0, all with added 0.5 M NaCl. Concentrations of N-SH3 used for each experiment were: 4.0–8.0 µM at pH 5.0, 2.0–7.0 µM at pH 5.5, 1.0–5.0 µM at pH 6.0, 0.5–5.0 µM at pH 6.5, 1.5–6.0 µM at pH 7.0, 0.5–5.0 µM at pH 7.5, 1.5–6.0 µM at pH 8.0, 1.5–6.0 µM pH 8.5, 1.5–6.0 µM at pH 9.0. For the ionic strength dependence of D138A and E140A variants buffer used were 0.05 M NaCl, 0.1 M NaCl, 0.15 M NaCl, in 50 mM Hepes pH 7.5. Concentrations of N-SH3 D138A used for each experiment were: 2.0–4.5 µM at 0 M NaCl, 2.5–6.0 µM at 0.05 M, 0.1 M, 0.15 M NaCl. Concentrations of N-SH3 E140A used for each experiment were: 2.0–4.5 µM at 0 M NaCl, 3.0–5.5 µM at 0.05 M NaCl, 3.0–5.0 µM at 0.1 M NaCl, 3.0–5.5 µM at 0.15 M NaCl. Displacement kinetic experiments were performed by mixing a preincubated complex of N-SH3 (in all its variants) and dansylated C3G versus a high excess of nondansylated C3G (see text for details). Experiments were performed in the same buffer conditions as the binding experiments, except for D141A variant, for which 20% w/v sucrose was added to the buffer Hepes 50 mM pH 7.0. Displacement traces were fitted with a single-exponential equation.

[5] = target: T2, N-SH3 E140A (Crkl); test: Stopped-flow kinetic binding, N-SH3 E140A versus C3G277–296; settings: pH 7.5, E140A, 50 mM Hepes pH 7.5, 10 °C
Method: as §1, §3
as §2, with “NaCl.” for “NaCl. Concentrations of N-SH3 used for each experiment were: 4.0–8.0 µM at pH 5.0, 2.0–7.0 µM at pH 5.5, 1.0–5.0 µM at pH 6.0, 0.5–5.0 µM at pH 6.5, 1.5–6.0 µM at pH 7.0, 0.5–5.0 µM at pH 7.5, 1.5–6.0 µM at pH 8.0, 1.5–6.0 µM pH 8.5, 1.5–6.0 µM at pH 9.0.”

- koff ([1]; 0 M NaCl): 139 ± 1 s⁻¹
- koff ([1]; 0.05 M NaCl): 212 ± 2 s⁻¹
- koff ([1]; 0.10 M NaCl): 183 ± 2 s⁻¹
- koff ([1]; 0.15 M NaCl): 254 ± 2 s⁻¹
- kon ([2]; 0 M NaCl, 0.5 µM dansylated peptide vs 2.0–4.5 µM N-SH3 D138A): 1.58e+08 ± 1.2e+07 M⁻¹ s⁻¹
- kon ([2]; 0.05 M NaCl, 0.5 µM dansylated peptide vs 2.5–6.0 µM N-SH3 D138A): 8.1e+07 ± 8e+06 M⁻¹ s⁻¹
- kon ([2]; 0.10 M NaCl, 0.5 µM dansylated peptide vs 2.5–6.0 µM N-SH3 D138A): 4.8e+07 ± 8e+06 M⁻¹ s⁻¹
- kon ([2]; 0.15 M NaCl, 0.5 µM dansylated peptide vs 2.5–6.0 µM N-SH3 D138A): 1.2e+07 ± 5e+06 M⁻¹ s⁻¹
- koff ([3]; 0 M NaCl): 254 ± 3 s⁻¹
- koff ([3]; 0.05 M NaCl): 330 ± 3 s⁻¹
- koff ([3]; 0.10 M NaCl): 302 ± 2 s⁻¹
- koff ([3]; 0.15 M NaCl): 339 ± 2 s⁻¹
- koff ([4]; pH 5, pH 5.0 (50 mM Sodium Acetate), 0.5 M NaCl, displacement): 257 ± 10 s⁻¹
- koff ([4]; pH 5.5, pH 5.5 (50 mM Sodium Acetate), 0.5 M NaCl, displacement): 81 ± 3 s⁻¹
- koff ([4]; pH 6, pH 6.0 (Bis–Tris 50 mM), 0.5 M NaCl, displacement): 78 ± 3 s⁻¹
- koff ([4]; pH 6.5, pH 6.5 (Bis–Tris 50 mM), 0.5 M NaCl, displacement): 65 ± 2 s⁻¹
- koff ([4]; pH 7, 0 M NaCl, Hepes 50 mM pH 7.0, displacement by 20–40 µM nondansylated peptide): 12 ± 1 s⁻¹
- koff ([4]; pH 7, 0.15 M NaCl, Hepes 50 mM pH 7.0, displacement): 23 ± 1 s⁻¹
- koff ([4]; pH 7, 0.3 M NaCl, Hepes 50 mM pH 7.0, displacement): 32 ± 2 s⁻¹
- koff ([4]; pH 7, 0.5 M NaCl (ionic strength series), Hepes 50 mM pH 7.0, displacement): 34 ± 1 s⁻¹
- koff ([4]; pH 7, 1.0 M NaCl, Hepes 50 mM pH 7.0, displacement): 51 ± 2 s⁻¹
- koff ([4]; pH 7, pH 7.0 (Hepes 50 mM), 0.5 M NaCl (pH series), displacement): 42 ± 2 s⁻¹
- koff ([4]; pH 7.5, pH 7.5 (Hepes 50 mM), 0.5 M NaCl, displacement): 34 ± 2 s⁻¹
- koff ([4]; pH 8, pH 8.0 (Tris–HCl 50 mM), 0.5 M NaCl, displacement): 46 ± 3 s⁻¹
- koff ([4]; pH 8.5, pH 8.5 (Tris–HCl 50 mM), 0.5 M NaCl, displacement): 40 ± 3 s⁻¹
- koff ([4]; pH 9, pH 9.0 (Tris–HCl 50 mM), 0.5 M NaCl, displacement): 39 ± 2 s⁻¹
- kon ([5]; 0 M NaCl, 0.5 µM dansylated peptide vs 2.0–4.5 µM N-SH3 E140A): 7.8e+07 ± 6e+06 M⁻¹ s⁻¹
- kon ([5]; 0.05 M NaCl, 0.5 µM dansylated peptide vs 3.0–5.5 µM N-SH3 E140A): 8.9e+07 ± 8e+06 M⁻¹ s⁻¹
- kon ([5]; 0.10 M NaCl, 0.5 µM dansylated peptide vs 3.0–5.0 µM N-SH3 E140A): 7.7e+07 ± 8e+06 M⁻¹ s⁻¹
- kon ([5]; 0.15 M NaCl, 0.5 µM dansylated peptide vs 3.0–5.5 µM N-SH3 E140A): 8.1e+07 ± 8e+06 M⁻¹ s⁻¹
Compound: CC(C)C[C@H](NC(=O)[C@H](C)NC(=O)[C@@H]1CCCN1C(=O)[C@@H]1CCCN1C(=O)[C@@H]1CCCN1C(=O)[C@H](CO)NC(=O)[C@H](CC(N)=O)NC(=O)[C@H](CC(=O)O)NC(=O)[C@@H](NC(=O)[C@@H](NS(=O)(=O)c1cccc2c(N(C)C)cccc12)C(C)C)C(C)C)C(=O)N1CCC[C@H]1C(=O)N1CCC[C@H]1C(=O)N[C@@H](CCCCN)C(=O)N[C@@H](CCCCN)C(=O)N[C@@H](CCCNC(=N)N)C(=O)N[C@@H](CCC(N)=O)C(=O)N[C@@H](CO)C(=O)N[C@@H](C)C(=O)N1CCC[C@H]1C(=O)N[C@@H](CO)C(=O)O [C3G277–296] (Dansyl-VVDNSPPPALPPKKRQSAPS-OH)
